These results are taken from patent publication US9556130B2, “4-oxo-3,4-dihydro-1,2,3-benzotriazine modulators of GPR139” (Takeda Pharmaceutical Company Limited, priority 2014, dated 2017).

For orientation: EC50 means the midpoint of the concentration-response curve. The Ki is a dissociation constant, usually derived from enzyme kinetics or from competition with a known ligand.

Assay [1] concerns c-Fos immunoreactivity in the dorsal medial habenula. Briefly: cFos Staining. The assay is classed as in vivo, C57/B16 mice. Particulars: oral. As to the method:
Methods: After dosing C57/B16 mice for various time courses their brains were prepared for immunohistochemistry. […] Brains are extracted and placed in 4% paraformaldehyde for 3 hours, changed into 20% sucrose/PBS solution to avoid freezing artifacts, and frozen with dry ice. Frozen brain sections are obtained with sliding microtome at 20 um and washed in PBS (2 times for 10 minutes each). Endogenous peroxidase enzyme is blocked with 0.3% H2O2 solution in water for 10 minutes. Sections are rinsed in PBS (3 times for 10 minutes each) and incubated in primary antibody against cFos (Santa Cruz SC-42) at a dilution of 1:10,000 at 4° C. overnight in PBS+0.3% triton and 1% bovine serum albumin. Sections are subsequently rinsed in PBS (3 times for 10 minutes each) and incubated in secondary antibody: goat against rabbit-biotinylated antibody, at a dilution of 1:200 for 1 hour at room temperature in PBS+0.3% triton and 1% bovine serum albumin. Sections are rinsed in PBS (3 times for 10 minutes each) and incubated in ABC mix in PBS; ABC Elite Kit from Vector (PK-1000) for 1 hour at room temperature. Next, the sections are rinsed in PBS (3 times for 10 minutes each) and then in 0.1 M sodium acetate (3 times for 10 minutes each). Reaction is visualized with standard diaminobenzydine procedures: 50 mL of 0.1M sodium acetate containing 20 mg ammonium chloride, 20 mg, diaminobenzydine, 80 mg glucose and 10 mL of glucose oxidase. React for 10 minutes then the reaction is stopped with PBS rinses (3 times for 10 minutes each). cFos cells are then counted.

For assay [2], the target named is T1, human GPR139 receptor (Homo sapiens (Human), UniProt Q6DWJ6). Put plainly: Activation of Calcium Signaling of GPR139 In Vitro Assay.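 Further: receptor expression induced with doxycycline, calcium fluorescence read continuously for one minute after compound addition, EC50 taken from a four-parameter logistic fit.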 The assay is classed as cell-based. As to conditions: stably transfected CHO-TRex cells, Calcium 5 dye, FLIPR Tetra.
T1 sequence (Q6DWJ6 whole entry): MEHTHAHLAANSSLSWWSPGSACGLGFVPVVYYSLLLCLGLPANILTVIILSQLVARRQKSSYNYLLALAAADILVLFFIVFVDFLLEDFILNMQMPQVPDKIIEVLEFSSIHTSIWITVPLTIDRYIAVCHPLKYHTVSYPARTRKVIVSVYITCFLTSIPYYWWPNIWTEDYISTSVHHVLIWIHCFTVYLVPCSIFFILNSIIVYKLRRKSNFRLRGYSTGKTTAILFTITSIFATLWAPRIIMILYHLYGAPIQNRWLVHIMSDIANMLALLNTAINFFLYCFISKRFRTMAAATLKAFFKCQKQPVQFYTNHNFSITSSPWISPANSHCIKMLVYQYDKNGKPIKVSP
The target of assay [3] is T1, human GPR139 receptor. Briefly: GPR139 Competition Binding.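 Further: receptor expression induced with doxycycline before membrane preparation, bound radioactivity counted by scintillation, Ki fitted with a four-parameter logistic model.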 Particulars: stably transfected CHO-TRex membranes, 1 nM 3H radioligand; read-out: GPR139 Inhibition (Ki (nM)).

Regarding `COc1cccc2nnn(CC(=O)N[C@@H](C)c3ccc(C)cc3)c(=O)c12` [Example 3, (S)-2-(5-methoxy-4-oxobenzo[d][1,2,3]triazin-3(4H)-yl)-N-(1-p-tolylethyl)acetamide], the “cFos cell count, Mean” value is given as 1628 in assay [1] (dose-response and time course experiment, 0.03 mg/kg 1 hr); 2243 in assay [1] (dose-response and time course experiment, 0.1 mg/kg 1 hr); 2458 in assay [1] (dose-response and time course experiment, 0.3 mg/kg 1 hr); 2777 in assay [1] (dose-response and time course experiment, 0.3 mg/kg 2 hr); 865 in assay [1] (dose-response and time course experiment, 0.3 mg/kg 4 hr); 2023 in assay [1] (dose-response and time course experiment, 3 mg/kg 1 hr).
For the molecule `C[C@H](NC(=O)Cn1nnc2ccccc2c1=O)c1ccc(OC(F)(F)F)cc1` [Example 2, (S)-2-(4-oxobenzo[d][1,2,3]triazin-3(4H)-yl)-N-(1-(4-(trifluoromethoxy)phenyl)ethyl)acetamide], the “cFos cell count, Mean” value in assay [1] (desensitization experiment, 0.1 mg/kg 1d) came to 1486; in assay [1] (desensitization experiment, 0.1 mg/kg 5d), 1928; in assay [1] (desensitization experiment, 0.1 mg/kg 10d), 1684; in assay [1] (dose response curve experiment, 0.01 mg/kg), 1376; in assay [1] (dose response curve experiment, 0.03 mg/kg), 986.3; in assay [1] (dose response curve experiment, 0.1 mg/kg), 1381. In addition, the “cFos cell count, Mean” value in assay [1] (dose response curve experiment, 0.3 mg/kg) was found to be 1408; in assay [1] (dose response curve experiment, 1 mg/kg), 1368; in assay [1] (time course experiment, 0.1 mg/kg 1 hr) it was 787.7; in assay [1] (time course experiment, 0.3 mg/kg 1 hr), 1343; in assay [1] (time course experiment, 0.3 mg/kg 2 hr), 1400; in assay [1] (time course experiment, 0.3 mg/kg 4 hr), 2170. In addition, the “cFos cell count, Mean” value in assay [1] (time course experiment, 3 mg/kg 1 hr) is on record as 2365.
Take `CC[C@H](NC(=O)Cn1nnc2ccccc2c1=O)c1ccc(C(F)(F)F)cc1` [Example 87, (S)-2-(4-oxobenzo[d][1,2,3]triazin-3 (4H)-yl)-N-(1-(4-(trifluoromethyl)phenyl)propyl)acetamide]: the EC50 at human GPR139 receptor [2] worked out at 31 nM. The Ki on human GPR139 receptor [3] turned out to be 214 nM.
As for `COc1ccc([C@H](C)NC(=O)Cn2nnc3c(F)cccc3c2=O)cc1` [Example 17, (S)-2-(8-fluoro-4-oxobenzo[d][1,2,3]triazin-3(4H)-yl)-N-(1-(4-methoxyphenyl)ethyl)acetamide], the EC50 on human GPR139 receptor [2] worked out at 27 nM. For the same molecule, at human GPR139 receptor [3], the Ki was 3600 nM.
Take `Cc1ccc([C@H](C)NC(=O)Cn2nnc3cccc(F)c3c2=O)cc1` [Example 32, (S)-2-(5-fluoro-4-oxobenzo[d][1,2,3]triazin-3(4H)-yl)-N-(1-p-tolylethyl)acetamide]: the EC50 at human GPR139 receptor [2] amounted to 16 nM. The Ki on human GPR139 receptor [3] was 459 nM.
With `Cc1ccc([C@H](C)NC(=O)Cn2nnc3c(C)cccc3c2=O)cc1` [Example 24, (S)-2-(8-methyl-4-oxobenzo[d][1,2,3]triazin-3(4H)-yl)-N-(1-p-tolylethyl)acetamide], at human GPR139 receptor [2], the EC50 was found to be 9 nM. Moreover, the inhibitory constant (Ki) at human GPR139 receptor [3] amounted to 72 nM.
On to `C[C@H](NC(=O)Cn1nnc2ccc(F)cc2c1=O)c1ccc(C(F)(F)F)cc1` [Example 64, (S)-2-(6-fluoro-4-oxobenzo[d][1,2,3]triazin-3(4H)-yl)-N-(1-(4-(trifluoromethyl)phenyl)ethyl)acetamide], for which the half-maximal effective concentration (EC50) at human GPR139 receptor [2] worked out at 13 nM. On human GPR139 receptor [3], the Ki came to 106 nM.
Consider `CC[C@H](NC(=O)Cn1nnc2ccccc2c1=O)c1ccc(OC(F)(F)F)cc1` [Example 86, (S)-2-(4-oxobenzo[d][1,2,3]triazin-3(4H)-yl)-N-(1-(4-(trifluoromethoxy)phenyl)propyl)acetamide], for which the EC50 on human GPR139 receptor [2] is 50 nM. For the same molecule, the inhibition constant (Ki) at human GPR139 receptor [3] worked out at 183 nM.
On the same counts, the results for `COc1ccc([C@H](C)NC(=O)Cn2nnc3c(Cl)cccc3c2=O)cc1` [Example 23, (S)-2-(8-chloro-4-oxobenzo[d][1,2,3]triazin-3(4H)-yl)-N-(1-(4-methoxyphenyl)ethyl)acetamide] are 13 nM and 842 nM.
As for `COc1ccc([C@H](C)NC(=O)Cn2nnc3c(Cl)cc(Cl)cc3c2=O)cc1` [Example 27, (S)-2-(6,8-dichloro-4-oxobenzo[d][1,2,3]triazin-3(4H)-yl)-N-(1-(4-methoxyphenyl)ethyl)acetamide], at human GPR139 receptor [2], the EC50 worked out at 7 nM. At human GPR139 receptor [3], the inhibitory constant (Ki) is 190 nM.
With `COc1ccc2c(=O)n(CC(=O)N[C@@H](C)c3ccc(OC(F)(F)F)cc3)nnc2c1` [Example 56, (S)-2-(7-methoxy-4-oxobenzo[d][1,2,3]triazin-3(4H)-yl)-N-(1-(4-(trifluoromethoxy)phenyl)ethyl)acetamide], on human GPR139 receptor [2], the concentration giving a half-maximal response (EC50) amounted to 37 nM. For the same molecule, the Ki on human GPR139 receptor [3] was 218 nM.
Turning to `COc1ccc([C@H](C)NC(=O)Cn2nnc3c(C)cc(C)cc3c2=O)cc1` [Example 42, (S)-2-(6,8-dimethyl-4-oxobenzo[d][1,2,3]triazin-3(4H)-yl)-N-(1-(4-methoxyphenyl)ethyl)acetamide], the 50% effective concentration (EC50) on human GPR139 receptor [2] is 37 nM. For the same molecule, the inhibition constant Ki on human GPR139 receptor [3] worked out at 179 nM.
As to `COc1ccc2nnn(CC(=O)N[C@@H](C)c3ccc(OC(F)(F)F)cc3)c(=O)c2c1` [Example 57, (S)-2-(6-methoxy-4-oxobenzo[d][1,2,3]triazin-3(4H)-yl)-N-(1-(4-(trifluoromethoxy)phenyl)ethyl)acetamide], the EC50 on human GPR139 receptor [2] is 43 nM. The Ki at human GPR139 receptor [3] came to 128 nM.
As to `COc1ccc([C@H](C)NC(=O)Cn2nnc3cccc(C)c3c2=O)cc1` [Example 40, (S)—N-(1-(4-methoxyphenyl)ethyl)-2-(5-methyl-4-oxobenzo[d][1,2,3]triazin-3(4H)-yl)acetamide], the EC50 on human GPR139 receptor [2] came out at 9 nM. Further, on human GPR139 receptor [3], the inhibition constant (Ki) is 533 nM.
On to `COc1ccc([C@H](C)NC(=O)Cn2nnc3cccc(OC)c3c2=O)cc1` [Example 38, (S)-2-(5-methoxy-4-oxobenzo[d][1,2,3]triazin-3 (4H)-yl)-N-(1-(4-methoxyphenyl)ethyl)acetamide], for which the concentration for a half-maximal effect (EC50) at human GPR139 receptor [2] stood at 26 nM. At human GPR139 receptor [3], the Ki came out at 619 nM.
As for `Cc1ccc([C@H](C)NC(=O)Cn2nnc3c(Cl)cc(Cl)cc3c2=O)cc1` [Example 26, (S)-2-(6,8-dichloro-4-oxobenzo[d][1,2,3]triazin-3(4H)-yl)-N-(1-p-tolylethyl)acetamide], the EC50 on human GPR139 receptor [2] came out at 16 nM. The inhibition constant Ki at human GPR139 receptor [3] stood at 26 nM.
